29 compounds from US20250154686A1, “COMPOUND LIBRARY” (CHUGAI SEIYAKU KABUSHIKI KAISHA, priority 2021, published 2025) can be followed below.

Each structure is given as a SMILES string.

In the assay the target is T1, Bcl-2 protein (Recombinant Human Bcl-2 Protein) (Homo sapiens, UniProt P10415).
T1 construct: purchased Novus Biologicals NBP2-34889
Kind of assay: AS-MS evaluation of binding of the Example 4 mixture library (1200 compounds/well) to Bcl-2, ASMS ratio (%). To be noted: mixture library, value belongs to the MS peak assigned to the compound; for ASMS ratio (%) n = 1: replicate n = 1; for ASMS ratio (%) n = 2: replicate n = 2. The procedure, abridged: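 Binding is read as an ASMS ratio from reverse-phase LC/MS peak data. Samples: 1200 compounds at 20 nM each with 20 μM Bcl-2, 1 h at 23 °C in the dark, then P-2 SEC and organic-solvent extraction; references lacked protein, with and without SEC.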

T1 sequence (P10415 whole entry): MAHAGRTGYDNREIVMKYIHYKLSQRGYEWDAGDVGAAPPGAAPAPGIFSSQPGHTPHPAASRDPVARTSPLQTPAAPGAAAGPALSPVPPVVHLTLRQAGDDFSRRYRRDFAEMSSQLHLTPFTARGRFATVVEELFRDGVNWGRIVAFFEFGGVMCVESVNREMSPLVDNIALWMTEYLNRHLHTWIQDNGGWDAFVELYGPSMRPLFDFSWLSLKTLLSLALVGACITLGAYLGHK

Consider `CCOc1cccc(C#Cc2cc(C(=O)N3CCN(c4ccc(C(=O)NS(=O)(=O)C(C)(C)C)cc4)CC3)cc(C(F)(F)F)c2)c1` [Compound B2L041-01, N-tert-Butylsulfonyl-4-[4-[3-[2-(3-ethoxyphenyl)ethynyl]-5-(trifluoromethyl)benzoyl]piperazin-1-yl]benzamide], for which the “ASMS ratio (%) n = 1” value came to 0.0%. Consider `CCOc1cncc(C#Cc2cc(C(=O)N3CCN(c4ccc(C(=O)NS(=O)(=O)C(C)(C)C)cc4)CC3)cc(C(F)(F)F)c2)c1` [Compound B2L042-01, N-tert-Butylsulfonyl-4-[4-[3-[2-(5-ethoxypyridin-3-yl)ethynyl]-5-(trifluoromethyl)benzoyl]piperazin-1-yl]benzamide], for which the “ASMS ratio (%) n = 1” value was found to be 0.0% and the “ASMS ratio (%) n = 2” value was 0.0%. Turning to `CCOc1cccc(-c2cnn(-c3cc(C(=O)N4CCN(c5ccc(C(=O)NS(=O)(=O)C(C)(C)C)cc5)CC4)cc(C(F)(F)F)c3)c2)c1` [Compound B2L043-01, N-tert-Butylsulfonyl-4-[4-[3-[4-(3-ethoxyphenyl)pyrazol-1-yl]-5-(trifluoromethyl)benzoyl]piperazin-1-yl]benzamide], the “ASMS ratio (%) n = 1” value worked out at 0.0% and the “ASMS ratio (%) n = 2” value is on record as 0.0%. In the case of `CCOc1cncc(-c2cnn(-c3cc(C(=O)N4CCN(c5ccc(C(=O)NS(=O)(=O)C(C)(C)C)cc5)CC4)cc(C(F)(F)F)c3)c2)c1` [Compound B2L044-01, N-tert-Butylsulfonyl-4-[4-[3-[4-(5-ethoxypyridin-3-yl)pyrazol-1-yl]-5-(trifluoromethyl)benzoyl]piperazin-1-yl]benzamide], the “ASMS ratio (%) n = 1” value stood at 0.0% and the “ASMS ratio (%) n = 2” value came to 0.0%. For the compound `CCOc1cccc(-c2ccccc2CN2CCN(c3ccc(C(=O)NS(=O)(=O)C(C)(C)C)cc3)CC2)c1` [Compound B2L045-01, N-tert-Butylsulfonyl-4-[4-[[2-(3-ethoxyphenyl)phenyl]methyl]piperazin-1-yl]benzamide], the “ASMS ratio (%) n = 1” value is 0.0% and the “ASMS ratio (%) n = 2” value stood at 0.0%. On to `CCOc1cncc(-c2ccccc2CN2CCN(c3ccc(C(=O)NS(=O)(=O)C(C)(C)C)cc3)CC2)c1` [Compound B2L046-01], for which the “ASMS ratio (%) n = 1” value is 0.0% and the “ASMS ratio (%) n = 2” value is recorded as 0.0%.

For the compound `CCOc1cccc(-c2ccc(CN3CCN(c4ccc(C(=O)NS(=O)(=O)C(C)(C)C)cc4)CC3)cc2C)c1` [Compound B2L047-01, N-tert-Butylsulfonyl-4-[4-[[4-(3-ethoxyphenyl)-3-methylphenyl]methyl]piperazin-1-yl]benzamide], the “ASMS ratio (%) n = 1” value is reported as 0.0% and the “ASMS ratio (%) n = 2” value came to 0.0%.

On to `CCOc1cncc(-c2ccc(CN3CCN(c4ccc(C(=O)NS(=O)(=O)C(C)(C)C)cc4)CC3)cc2C)c1` [Compound B2L048-01, N-tert-Butylsulfonyl-4-[4-[[4-(5-ethoxypyridin-3-yl)-3-methylphenyl]methyl]piperazin-1-yl]benzamide], for which the “ASMS ratio (%) n = 1” value came to 3.9% and the “ASMS ratio (%) n = 2” value was −5.0%.

As to `CCOc1cccc(-c2ccc(CN3CCN(c4ccc(C(=O)NS(=O)(=O)C(C)(C)C)cc4)CC3)c(CC)c2)c1` [Compound B2L049-01, N-tert-Butylsulfonyl-4-[4-[[4-(3-ethoxyphenyl)-2-ethylphenyl]methyl]piperazin-1-yl]benzamide], the “ASMS ratio (%) n = 2” value is on record as 0.0%.

Regarding `CCOc1cncc(-c2ccc(CN3CCN(c4ccc(C(=O)NS(=O)(=O)C(C)(C)C)cc4)CC3)c(CC)c2)c1` [Compound B2L050-01, N-tert-Butylsulfonyl-4-[4-[[4-(5-ethoxypyridin-3-yl)-2-ethylphenyl]methyl]piperazin-1-yl]benzamide], the “ASMS ratio (%) n = 1” value was found to be 0.0% and the “ASMS ratio (%) n = 2” value was determined as 0.0%. Consider `CCOc1cccc(-c2ccc(CN3CCN(c4ccc(C(=O)NS(=O)(=O)C(C)(C)C)cc4)CC3)cc2F)c1` [Compound B2L051-01, N-tert-Butylsulfonyl-4-[4-[[4-(3-ethoxyphenyl)-3-fluorophenyl]methyl]piperazin-1-yl]benzamide], for which the “ASMS ratio (%) n = 1” value is given as 0.0% and the “ASMS ratio (%) n = 2” value was determined as 0.0%. In the case of `CCOc1cncc(-c2ccc(CN3CCN(c4ccc(C(=O)NS(=O)(=O)C(C)(C)C)cc4)CC3)cc2F)c1` [Compound B2L052-01, N-tert-Butylsulfonyl-4-[4-[[4-(5-ethoxypyridin-3-yl)-3-fluorophenyl]methyl]piperazin-1-yl]benzamide], the “ASMS ratio (%) n = 1” value is reported as 2.7% and the “ASMS ratio (%) n = 2” value was 1.0%. For the compound `CCOc1cccc(-c2ccc(CN3CCN(c4ccc(C(=O)NS(=O)(=O)C(C)(C)C)cc4)CC3)c(OC)c2)c1` [Compound B2L053-01], the “ASMS ratio (%) n = 1” value worked out at 0.0% and the “ASMS ratio (%) n = 2” value came to 0.0%. As to `CCOc1cncc(-c2ccc(CN3CCN(c4ccc(C(=O)NS(=O)(=O)C(C)(C)C)cc4)CC3)c(OC)c2)c1` [Compound B2L054-01], the “ASMS ratio (%) n = 1” value was found to be 0.0% and the “ASMS ratio (%) n = 2” value was determined as 0.0%.

With `CCOc1cccc(-c2cc(CN3CCN(c4ccc(C(=O)NS(=O)(=O)C(C)(C)C)cc4)CC3)cc(OCC)c2)c1` [Compound B2L055-01, N-tert-Butylsulfonyl-4-[4-[[3-ethoxy-5-(3-ethoxyphenyl)phenyl]methyl]piperazin-1-yl]benzamide], the “ASMS ratio (%) n = 1” value is on record as 0.0% and the “ASMS ratio (%) n = 2” value is recorded as 0.0%. Consider `CCOc1cncc(-c2cc(CN3CCN(c4ccc(C(=O)NS(=O)(=O)C(C)(C)C)cc4)CC3)cc(OCC)c2)c1` [Compound B2L056-01], for which the “ASMS ratio (%) n = 1” value was found to be 0.0% and the “ASMS ratio (%) n = 2” value was 0.0%.

With `CCOc1cccc(-c2cc(CN3CCN(c4ccc(C(=O)NS(=O)(=O)C(C)(C)C)cc4)CC3)cc(OC(C)C)c2)c1` [Compound B2L057-01, N-tert-Butylsulfonyl-4-[4-[3-(3-ethoxyphenyl)-5-propan-2-yloxyphenylmethyl]piperazin-1-yl]benzamide], the “ASMS ratio (%) n = 1” value is on record as 0.0% and the “ASMS ratio (%) n = 2” value is recorded as 0.0%. For the compound `CCOc1cncc(-c2cc(CN3CCN(c4ccc(C(=O)NS(=O)(=O)C(C)(C)C)cc4)CC3)cc(OC(C)C)c2)c1` [Compound B2L058-01], the “ASMS ratio (%) n = 1” value stood at 0.0% and the “ASMS ratio (%) n = 2” value was determined as 0.0%.

On to `CCOc1cccc(-c2cc(OC)c(CN3CCN(c4ccc(C(=O)NS(=O)(=O)C(C)(C)C)cc4)CC3)c(OC)c2)c1` [Compound B2L059-01, N-tert-Butylsulfonyl-4-[4-[[4-(3-ethoxyphenyl)-2,6-dimethoxyphenyl]methyl]piperazin-1-yl]benzamide], for which the “ASMS ratio (%) n = 1” value is recorded as 0.0% and the “ASMS ratio (%) n = 2” value worked out at 0.0%. For `CCOc1cncc(-c2cc(OC)c(CN3CCN(c4ccc(C(=O)NS(=O)(=O)C(C)(C)C)cc4)CC3)c(OC)c2)c1` [Compound B2L060-01], the “ASMS ratio (%) n = 2” value is listed as 0.0%. For `CCOc1cccc(-c2cc(CN3CCN(c4ccc(C(=O)NS(=O)(=O)C(C)(C)C)cc4)CC3)cc(C(F)(F)F)c2)c1` [Compound B2L061-01, N-tert-Butylsulfonyl-4-[4-[[3-(3-ethoxyphenyl)-5-(trifluoromethyl)phenyl]methyl]piperazin-1-yl]benzamide], the “ASMS ratio (%) n = 1” value was found to be 4.6% and the “ASMS ratio (%) n = 2” value is −11.1%.

Regarding `CCOc1cncc(-c2cc(CN3CCN(c4ccc(C(=O)NS(=O)(=O)C(C)(C)C)cc4)CC3)cc(C(F)(F)F)c2)c1` [Compound B2L062-01, N-tert-Butylsulfonyl-4-[4-[[3-(5-ethoxypyridin-3-yl)-5-(trifluoromethyl)phenyl]methyl]piperazin-1-yl]benzamide], the “ASMS ratio (%) n = 1” value was found to be 0.0% and the “ASMS ratio (%) n = 2” value is given as 0.0%.

With `CCOc1cccc(-c2cc(CN3CCN(c4ccc(C(=O)NS(=O)(=O)C(C)(C)C)cc4)CC3)cc(OC(F)(F)F)c2)c1` [Compound B2L063-01, N-tert-Butylsulfonyl-4-[4-[[3-(3-ethoxyphenyl)-5-(trifluoromethoxy)phenyl]methyl]piperazin-1-yl]benzamide], the “ASMS ratio (%) n = 1” value was found to be 0.0% and the “ASMS ratio (%) n = 2” value is on record as 0.0%. With `CCOc1cncc(-c2cc(CN3CCN(c4ccc(C(=O)NS(=O)(=O)C(C)(C)C)cc4)CC3)cc(OC(F)(F)F)c2)c1` [Compound B2L064-01], the “ASMS ratio (%) n = 1” value was 0.0% and the “ASMS ratio (%) n = 2” value is 0.0%. As for `CCOc1cncc(-c2ccc(CN3CCN(c4ccc(C(=O)NS(=O)(=O)C(C)(C)C)cc4)CC3)c3ccccc23)c1` [Compound B2L066-01, N-tert-Butylsulfonyl-4-[4-[[4-(5-ethoxypyridin-3-yl)naphthalen-1-yl]methyl]piperazin-1-yl]benzamide], the “ASMS ratio (%) n = 1” value is given as 0.0% and the “ASMS ratio (%) n = 2” value was 0.0%.

As to `CCOc1cccc(-c2csc(CN3CCN(c4ccc(C(=O)NS(=O)(=O)C(C)(C)C)cc4)CC3)c2)c1` [Compound B2L067-01], the “ASMS ratio (%) n = 1” value was 0.0% and the “ASMS ratio (%) n = 2” value amounted to 0.0%.

`CCOc1cncc(-c2csc(CN3CCN(c4ccc(C(=O)NS(=O)(=O)C(C)(C)C)cc4)CC3)c2)c1` [Compound B2L068-01]: the “ASMS ratio (%) n = 1” value is recorded as 0.0% and the “ASMS ratio (%) n = 2” value stood at 0.0%. On to `CCOc1cccc(C#Cc2ccccc2CN2CCN(c3ccc(C(=O)NS(=O)(=O)C(C)(C)C)cc3)CC2)c1` [Compound B2L069-01, N-tert-Butylsulfonyl-4-[4-[[2-[2-(3-ethoxyphenyl)ethynyl]phenyl]methyl]piperazin-1-yl]benzamide], for which the “ASMS ratio (%) n = 1” value is 0.0% and the “ASMS ratio (%) n = 2” value is on record as 0.0%. Consider `CCOc1cncc(C#Cc2ccccc2CN2CCN(c3ccc(C(=O)NS(=O)(=O)C(C)(C)C)cc3)CC2)c1` [Compound B2L070-01], for which the “ASMS ratio (%) n = 1” value was found to be 4.9% and the “ASMS ratio (%) n = 2” value was −4.2%.
